Assay results: publication PMC5607265, “Design, synthesis and structure-activity relationship of 3,6-diaryl-7H-[1,2,4]triazolo[3,4-b][1,3,4]thiadiazines as novel tubulin inhibitors” (Scientific Reports, 2017)
Entries after “also recorded” stand apart in the source; their conditions may differ. Where two headings read alike, the source gives them in different places.

Tests used:
[1] = system: gastric adenocarcinoma SGC-7901 cells; assay: MTT antiproliferative assay, SGC-7901; assay type: cell-based, human; details: read-out: IC50 SGC-7901
Description: (§1) The SGC-7901, A549 and HT-1080 cell lines were purchased from the American Type Culture Collection (ATCC, Manassas, VA, USA). […] Briefly, approximately 3 × 10^4 cells were seeded in a 96-well plate. After 24 h of incubation at 37 °C, cells were exposed to compounds of differing concentrations for 24 h. After treatment, cells were washed with 1X PBS followed by addition of 100 µL of 0.05% MTT reagent to each well, followed by incubation for 4 h at 37 °C. After incubation, the supernatant from each well was carefully removed and the formazan crystals were dissolved in 100 µL of DMSO. The colour density was measured spectrophotometrically at 490 nm using a microplate reader (SpectraMax Plus384, Molecular Devices Corp., USA). The data were calculated and plotted as percent viability compared to control.
as §1

[2] = system: lung adenocarcinoma A549 cells; assay: MTT antiproliferative assay, A549; assay type: cell-based, human; details: read-out: IC50 A549
Description: as §1, §1

[3] = system: fibrosarcoma HT-1080 cells; assay: MTT antiproliferative assay, HT-1080; assay type: cell-based, human; details: read-out: IC50 HT-1080
Description: as §1, §1

[4] = system: SGC-7901, A549 and HT-1080 cell lines; assay: MTT antiproliferative assay, span over the three cell lines; assay type: cell-based, human; details: for antiproliferative activity in words: SGC-7901, A549 and HT-1080; for IC50: read-out: IC50 range against the three human cancer cell lines
Description: as §1, §1

[5] = molecular target: T1, highly purified tubulin from porcine brain (Sus scrofa, UniProt P02554); assay: Tubulin polymerization assay; assay type: biochemical; details: CA-4 0.5-4 µM, 6i 0.1-8.0 µM, paclitaxel 5.0 µM, 37 °C
T1 construct: highly purified tubulin from porcine brain; purchased Cytoskeleton BK011P; host or cells: porcine brain (tissue-purified)
Description: This assay uses highly purified tubulin from porcine brain.
The reaction was monitored at 37 °C.
(§2) Tubulin polymerization assay[33] was conducted with reagents as described in the kit manufacturer (Cytoskeleton, Cat.#BK011P) in a 96-well plate. In brief, tubulin was re-suspended in ice-cold G-PEM buffer (80 mM PIPES, 2 mM MgCl2, 0.5 mM EGTA, 1 mM GTP, 20% (v/v) glycerol) and added to wells on a 96-well plate containing the designated concentration of drugs or vehicle. Samples were mixed well, and tubulin assembly was monitored (emission wavelength: 450 ± 20 nm; excitation wavelength: 360 ± 20 nm) at 1 min intervals for 90 min at 37 °C in a SpectraMax 340PC spectrophotometer (Biotek Synergy HT, Winooskin, VT, USA). IC50 values were calculated from data at the 20 min time point using GraphPad Prism software. Experiments were repeated three times.
as §2, with “assay” for “assay[33]”, “450±20” for “450 ± 20”, “360±20” for “360 ± 20”, “timepoint” for “time point”

[6] = system: HCT116; design: method as in Org. Biomol. Chem. 2005, 3, 2657-2660; details: ref Org. Biomol. Chem. 2005, 3, 2657-2660; cited from earlier work
[7] = MTT assay, 24 h exposure, triplicate
[8] = range over SGC-7901, A549 and HT-1080, MTT assay
[9] = Homo sapiens, SGC-7901, MTT assay, 24 h exposure, triplicate
[10] = Homo sapiens, A549, MTT assay, 24 h exposure, triplicate
[11] = Homo sapiens, HT-1080, MTT assay, 24 h exposure, triplicate

T1 sequence (P02554 whole entry): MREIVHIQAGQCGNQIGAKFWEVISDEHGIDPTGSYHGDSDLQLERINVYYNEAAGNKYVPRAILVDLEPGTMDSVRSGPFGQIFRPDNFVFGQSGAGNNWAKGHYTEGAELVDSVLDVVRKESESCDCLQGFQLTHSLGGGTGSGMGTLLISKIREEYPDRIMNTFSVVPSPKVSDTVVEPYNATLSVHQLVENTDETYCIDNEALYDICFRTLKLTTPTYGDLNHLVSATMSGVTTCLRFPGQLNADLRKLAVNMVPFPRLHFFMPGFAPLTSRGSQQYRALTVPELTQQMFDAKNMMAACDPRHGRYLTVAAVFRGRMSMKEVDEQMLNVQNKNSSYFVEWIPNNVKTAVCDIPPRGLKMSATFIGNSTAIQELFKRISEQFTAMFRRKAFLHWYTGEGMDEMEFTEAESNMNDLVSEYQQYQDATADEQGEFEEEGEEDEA
T1 sequence (P02550 whole entry partner): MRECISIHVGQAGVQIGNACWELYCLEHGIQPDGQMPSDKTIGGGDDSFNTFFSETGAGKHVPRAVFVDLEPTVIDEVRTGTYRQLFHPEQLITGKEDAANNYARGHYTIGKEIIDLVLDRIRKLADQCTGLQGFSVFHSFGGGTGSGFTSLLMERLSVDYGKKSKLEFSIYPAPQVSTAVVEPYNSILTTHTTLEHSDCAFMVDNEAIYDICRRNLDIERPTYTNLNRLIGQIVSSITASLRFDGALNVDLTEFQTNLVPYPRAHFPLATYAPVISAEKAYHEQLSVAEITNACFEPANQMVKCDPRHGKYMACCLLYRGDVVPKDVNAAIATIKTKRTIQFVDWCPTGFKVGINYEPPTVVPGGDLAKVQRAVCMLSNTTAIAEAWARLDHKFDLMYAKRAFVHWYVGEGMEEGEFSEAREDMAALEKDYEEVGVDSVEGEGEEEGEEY

Row | melting point | IC50 [1, 9] | IC50 [2, 10] | IC50 [3, 11] | Compound | antiproliferative activity in words ([4]; MTT assay) | other results
1 | – | – | – | – | COc1ccc(-c2nnc3n2N=C(c2ccc(C)cc2)CS3)c(OC)c1OC [Compound 4d, 3-(2,3,4-Trimethoxyphenyl)-6-(4-methyphenyl)-7H-[1,2,4]triazolo[3,4-b][1,3,4]thiadiazine] | IC50 values at the nanomolar level | IC50 [1, 7]: 66 nM; IC50 [2, 7]: 73 nM; IC50 [3, 7]: 28 nM; IC50 [4, 8]: 28 to 73 nM
2 | 88 to 89 °C | 16300 nM | 7730 nM | 630 nM | COc1ccc(C2=Nn3c(nnc3-c3ccc(OC)c(OC)c3OC)SC2)cc1O [Compound 4l, 3-(2,3,4-Trimethoxyphenyl)-6-(3-hydroxy-4-methoxyphenyl)-7H-[1,2,4]triazolo[3,4-b][1,3,4]thiadiazine] | only moderate activity | –
3 | – | – | – | – | COc1cc(-c2nnc3n2N=C(c2ccc(C)cc2)CS3)cc(OC)c1OC [Compound 5b, 3-(3,4,5-Trimethoxyphenyl)-6-(4-methyphenyl)-7H-[1,2,4]triazolo[3,4-b][1,3,4]thiadiazine] | IC50 values at the nanomolar level | IC50 [1, 7]: 27 nM; IC50 [2, 7]: 19 nM; IC50 [3, 7]: 16 nM; IC50 [4, 8]: 16 to 27 nM
4 | 88 to 90 °C | 18 nM | 26 nM | 21 nM | COc1ccc(C2=Nn3c(nnc3-c3ccc4c(c3)OCO4)SC2)cc1N [Compound 6c, 3-(3,4-Methylenedioxyphenyl)-6-(3-amino-4-methoxyphenyl)-7H-[1,2,4]triazolo[3,4-b][1,3,4]thiadiazine] | nanomolar IC50 values against all tested cells; also recorded: IC50 values at the nanomolar level | –
5 | 85 to 87 °C | 37 nM | 79 nM | 35 nM | COc1ccc(C2=Nn3c(nnc3-c3ccc4c(c3)OCO4)SC2)cc1O [Compound 6e, 3-(3,4-Methylenedioxyphenyl)-6-(3-hydroxy-4-methoxyphenyl)-7H-[1,2,4]triazolo[3,4-b][1,3,4]thiadiazine] | nanomolar IC50 values against all tested cells; also recorded: IC50 values at the nanomolar level | –
6 | 190 to 192 °C | 5040 nM | 3680 nM | 3320 nM | COc1ccc(-c2nnc3n2N=C(c2ccc(OC)c([N+](=O)[O-])c2)CS3)cc1OC [Compound 6f, 3-(3,4-Dimethoxyphenyl)-6-(3-nitro-4-methoxyphenyl)-7H-[1,2,4]triazolo[3,4-b][1,3,4]thiadiazine] | – | –
7 | 213 to 215 °C | 23 nM | 32 nM | 18 nM | COc1ccc(C2=Nn3c(nnc3-c3ccc(OC)c(OC)c3)SC2)cc1N [Compound 6g, 3-(3,4-Dimethoxyphenyl)-6-(3-amino-4-methoxyphenyl)-7H-[1,2,4]triazolo[3,4-b][1,3,4]thiadiazine] | IC50 values at the nanomolar level | antiproliferative activity in words ([4]; MTT assay, listed as 6 g): nanomolar IC50 values against all tested cells
8 | 207 to 208 °C | 2550 nM | 4200 nM | 1910 nM | COc1cccc(-c2nnc3n2N=C(c2ccc(OC)c([N+](=O)[O-])c2)CS3)c1 [Compound 6h, 3-(3-Methoxyphenyl)-6-(3-nitro-4-methoxyphenyl)-7H-[1,2,4]triazolo[3,4-b][1,3,4]thiadiazine] | – | –
9 | 97 to 99 °C | 8040 nM | 5680 nM | 2320 nM | COc1ccc(-c2nnc3n2N=C(c2ccc(OC)c([N+](=O)[O-])c2)CS3)cc1 [Compound 6j, 3-(4-Methoxyphenyl)-6-(3-nitro-4-methoxyphenyl)-7H-[1,2,4]triazolo[3,4-b][1,3,4]thiadiazine] | – | –
10 | 214 to 215 °C | 36 nM | 38 nM | 23 nM | COc1ccc(-c2nnc3n2N=C(c2ccc(OC)c(N)c2)CS3)cc1 [Compound 6k, 3-(4-Methoxyphenyl)-6-(3-amino-4-methoxyphenyl)-7H-[1,2,4]triazolo[3,4-b][1,3,4]thiadiazine] | nanomolar IC50 values against all tested cells; also recorded: IC50 values at the nanomolar level | –
11 | – | – | – | – | CC(=O)O[C@H]1C(=O)[C@@]2(C)[C@H]([C@H](OC(=O)c3ccccc3)[C@]3(O)C[C@H](OC(=O)[C@H](O)[C@@H](NC(=O)c4ccccc4)c4ccccc4)C(C)=C1C3(C)C)[C@]1(OC(C)=O)CO[C@@H]1C[C@@H]2O [paclitaxel, reference compound] | – | effect on tubulin polymerization in words [5]: could distinctly promoted this process
12 | – | – | – | – | COc1ccc(/C=C/C=C\c2cc(OC)c(OC)c(OC)c2)cc1O [vinylogous CA-4 (Z,E), vinylogous CA-4] | – | IC50 [6]: 163 nM

Row | Compound | melting point | IC50 [1, 9] | IC50 [2, 10] | IC50 [3, 11] | antiproliferative activity in words ([4]; MTT assay) | other results
13 | COc1ccc(C2=Nn3c(nnc3-c3ccc(OC)c(OC)c3OC)SC2)cc1N [Compound 4j, 3-(2,3,4-Trimethoxyphenyl)-6-(3-amino-4-methoxyphenyl)-7H-[1,2,4]triazolo[3,4-b][1,3,4]thiadiazine] | 93 to 94 °C | – | – | – | only moderate activity | IC50 ([1]; Homo sapiens, SGC-7901, 24 h): 1570 nM; IC50 ([2]; Homo sapiens, A549, 24 h): 1580 nM; IC50 ([3]; Homo sapiens, HT-1080, 24 h): 890 nM
14 | COc1ccc(C2=Nn3c(nnc3-c3cc(OC)c(OC)c(OC)c3)SC2)cc1O [Compound 5i, 3-(3,4,5-Trimethoxyphenyl)-6-(3-hydroxy-4-methoxyphenyl)-7H-[1,2,4]triazolo[3,4-b][1,3,4]thiadiazine] | 95 to 97 °C | – | – | – | IC50 values at the nanomolar level | IC50 ([1]; Homo sapiens, SGC-7901, 24 h): 26 nM; IC50 ([2]; Homo sapiens, A549, 24 h): 71 nM; IC50 ([3]; Homo sapiens, HT-1080, 24 h): 47 nM; IC50 ([4]; Homo sapiens): 26 to 71 nM
